Assay results taken from patent US20250288704A1, “CXCR4-LIGANDS FOR DIAGNOSTIC AND THERAPEUTIC USE AND PRECURSORS THEREOF” (priority 2021, published 2025).
Where two headings read alike, the source gives them in different places. Non-standard residues stand in square brackets, D forms with d. Residues, ends and D or L forms follow the SMILES beside them. Groups on a side chain read outwards from the residue. *: point of attachment. DOTA = O=C(O)CN1CCN(CC(=O)O)CCN(CC(=O)*)CCN(CC(=O)O)CC1; dTyr(3-I) = N[C@H](Cc1ccc(O)c(I)c1)C(=O)O; 2Nal = N[C@@H](Cc1ccc2ccccc2c1)C(=O)O; dNMeOrn = CN[C@H](CCCN)C(=O)O; 4Amb = NCc1ccc(C(=O)O)cc1; 4Abz = Nc1ccc(C(=O)O)cc1; dDap = NC[C@@H](N)C(=O)O

Assays:
CXCR4 = CXCR4 (Homo sapiens, UniProt P61073); assay: Determination of IC50: competition with 125I-Fc-131 on CXCR4-positive Jurkat cells; type: binding; set-up: CXCR4-positive Jurkat T lymphocyte cells were grown in Gibco's RPMI 1640 GlutaMAX medium; endogenous in cells; host or cells: Jurkat T lymphocyte cells (whole cells in suspension, 400.000 per tube);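 further: test compound at 10^−5 to 10^−11 M competed for 2 h at 8 °C with the radioligand on 400,000 cells per well, bound versus free activity measured by γ-counting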
[1] = Octanol/PBS partition coefficient (logD7.4); type: physicochemical; details: n-octanol/PBS pH 7.4, radiolabeled compound
Procedure: The tubes were vortexed at maximum speed for 3 min to ensure equilibrium before centrifugation at 15.000×g for 5 min on a Biofuge 15 from Heraeus Holding GmbH (Osterode, Germany). An aliquot of 100 μL of each fraction was measured in the γ-counter and the log D7.4 calculated as follows: […]

[2] = test system: CXCR4-expressing Chem_1 cells; assay: Determination of internalization, dual tracer with 125I-Fc-131; type: cell-based; details: for Cell-bound [%] / Internalized [%]: of total cellular activity; for Internalization [% Fc-131] 2 h: 177Lu-labeled
Procedure: CXCR4-expressing Chem_1 cells were grown in DMEM-F12 medium supplemented with 10 vol % FBS, 1 vol % NEA, 1 vol % PenStrep and 1 vol % HEPES (1.00 M). Cells were maintained in a 5% CO2 atmosphere at 37° C.
For in vitro experiments, cells were harvested by removal of the medium and incubation of the cells with trypsine/EDTA (0.05%/0.02%; w/v) for 30 in at 37° C.
Each well (n=3 for every time point) was either treated with 25 μL DMEM-F12 (+5 wt % BSA) or 25 μL of an AMD3100 stock (1 mM in H2O) for blockage of the receptors.
The experiment was stopped by placing the well-plate on ice and removing the supernatant. The cells were washed with 250 μL cold HBSS and the both fractions for each well combined, comprising the amount of unbound radioligand.
The supernatant was removed, the cells washed with cold HBSS and the respective fractions combined to obtain the amount of surface-bound radioligand.
The cells were then incubated with 300 μL NaOH (1.00 M in H2O) for at least 30 at r.t. before the supernatant was removed. The well was washed with another 300 μL NaOH and the fractions combined that contain the amount of internalized radioligand.
The three different fractions were subjected to activity measurement in the γ-counter, measuring the activity of the radionuclide used for the labeling of the peptide under investigation first. […] Data was corrected for non-specific internalization and referred to the specific internalization of the standard ligand

[3] = unlabeled or cold (natGa/natLu) compound vs 125I-Fc-131, Jurkat cells, read-out: IC50

CXCR4, sequence (P61073 whole entry): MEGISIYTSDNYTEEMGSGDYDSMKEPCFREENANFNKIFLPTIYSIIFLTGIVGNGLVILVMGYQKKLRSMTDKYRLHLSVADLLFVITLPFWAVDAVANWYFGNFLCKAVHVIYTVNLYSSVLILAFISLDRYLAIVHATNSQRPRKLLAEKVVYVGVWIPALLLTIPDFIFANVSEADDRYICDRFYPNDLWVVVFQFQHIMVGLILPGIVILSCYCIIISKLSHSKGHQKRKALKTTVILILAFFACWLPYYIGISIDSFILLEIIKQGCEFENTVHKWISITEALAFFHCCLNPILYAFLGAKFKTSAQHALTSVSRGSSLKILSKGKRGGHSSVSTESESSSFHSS

Compound: C[C@@H](NC(=O)[C@@H](CCCNC(=N)N)NC(=O)[C@@H](CN)NC(=O)CN1CCN(CC(=O)O)CCN(CC(=O)O)CCN(CC(=O)O)CC1)C(=O)NCc1ccc(C(=O)NCCC[C@@H]2C(=O)N[C@@H](CCCNC(=N)N)C(=O)N[C@@H](Cc3ccc4ccccc4c3)C(=O)NCC(=O)N[C@H](Cc3ccc(O)cc3)C(=O)N2C)cc1 [CXCR4-DOTA-1 [Ga]] (cyclo([dY][dNMeOrn]([4Amb-dA-dR-dDap-DOTA])R[2Nal]G))
- IC50 (CXCR4; [3]): 2.95 ± 0.59 nM

Compound: C[C@@H](NC(=O)[C@@H](CCCNC(=N)N)NC(=O)[C@@H](CN)NC(=O)CN1CCN(CC(=O)O)CCN(CC(=O)O)CCN(CC(=O)O)CC1)C(=O)NCc1ccc(C(=O)NCCC[C@@H]2C(=O)N[C@@H](CCCNC(=N)N)C(=O)N[C@@H](Cc3ccc4ccccc4c3)C(=O)NCC(=O)N[C@H](Cc3ccc(O)cc3)C(=O)N2C)cc1 [CXCR4-DOTA-1] (cyclo([dY][dNMeOrn]([4Amb-dA-dR-dDap-DOTA])R[2Nal]G))
- IC50 (CXCR4; [3]): 12.1 ± 2.42 nM

Compound: C[C@@H](NC(=O)[C@@H](CCCNC(=N)N)NC(=O)[C@@H](CN)NC(=O)CN1CCN(CC(=O)O)CCN(CC(=O)O)CCN(CC(=O)O)CC1)C(=O)NCc1ccc(C(=O)NCCC[C@@H]2C(=O)N[C@@H](CCCNC(=N)N)C(=O)N[C@@H](Cc3ccc4ccccc4c3)C(=O)NCC(=O)N[C@H](Cc3ccc(O)c(I)c3)C(=O)N2C)cc1 [CXCR4-DOTA-2] (cyclo([dTyr(3-I)][dNMeOrn]([4Amb-dA-dR-dDap-DOTA])R[2Nal]G))
- IC50 (CXCR4): 7.03 ± 0.59 nM

Compound: C[C@@H](NC(=O)[C@@H](CCCNC(=N)N)NC(=O)[C@@H](CN)NC(=O)CN1CCN(CC(=O)O)CCN(CC(=O)O)CCN(CC(=O)O)CC1)C(=O)Nc1ccc(C(=O)NCCC[C@@H]2C(=O)N[C@@H](CCCNC(=N)N)C(=O)N[C@@H](Cc3ccc4ccccc4c3)C(=O)NCC(=O)N[C@H](Cc3ccc(O)cc3)C(=O)N2C)cc1 [CXCR4-DOTA-3 [Lu]] (cyclo([dY][dNMeOrn]([4Abz-dA-dR-dDap-DOTA])R[2Nal]G))
- logD7.4 [1]: −3.35 ± 0.19 (6)
- Internalized in relation to 125I-Fc-131 [%] ([2]; 15 min): 180 ± 32.6%
- Cell-bound [%] ([2]; 15 min): 6.46 ± 1.07%
- Internalized [%] ([2]; 15 min): 15.2 ± 0.99%
- Internalized in relation to 125I-Fc-131 [%] ([2]; 30 min): 259 ± 23.0%
- Cell-bound [%] ([2]; 30 min): 9.88 ± 0.54%
- Internalized [%] ([2]; 30 min): 22.2 ± 0.78%
- Internalized in relation to 125I-Fc-131 [%] ([2]; 60 min): 289 ± 22.4%
- Cell-bound [%] ([2]; 60 min): 13.4 ± 0.84%
- Internalized [%] ([2]; 60 min): 33.4 ± 0.87%
- Internalized in relation to 125I-Fc-131 [%] ([2]; 120 min): 366 ± 69.5%
- Internalization [% Fc-131] 2 h [2]: 366 % Fc-131
- Cell-bound [%] ([2]; 120 min): 17.1 ± 2.69%
- Internalized [%] ([2]; 120 min): 38.4 ± 1.78%

Compound: C[C@@H](NC(=O)[C@@H](CCCNC(=N)N)NC(=O)[C@@H](CN)NC(=O)CN1CCN(CC(=O)O)CCN(CC(=O)O)CCN(CC(=O)O)CC1)C(=O)Nc1ccc(C(=O)NCCC[C@@H]2C(=O)N[C@@H](CCCNC(=N)N)C(=O)N[C@@H](Cc3ccc4ccccc4c3)C(=O)NCC(=O)N[C@H](Cc3ccc(O)c(I)c3)C(=O)N2C)cc1 [CXCR4-DOTA-4 [Lu]] (cyclo([dTyr(3-I)][dNMeOrn]([4Abz-dA-dR-dDap-DOTA])R[2Nal]G))
- logD7.4 [1]: −2.89 ± 0.10 (6)
- Internalized in relation to 125I-Fc-131 [%] ([2]; 15 min): 381 ± 16.2%
- Cell-bound [%] ([2]; 15 min): 16.0 ± 0.58%
- Internalized [%] ([2]; 15 min): 20.7 ± 0.59%
- Internalized in relation to 125I-Fc-131 [%] ([2]; 30 min): 588 ± 34.1%
- Cell-bound [%] ([2]; 30 min): 24.6 ± 1.38%
- Internalized [%] ([2]; 30 min): 30.6 ± 1.56%
- Internalized in relation to 125I-Fc-131 [%] ([2]; 60 min): 685 ± 50.1%
- Cell-bound [%] ([2]; 60 min): 32.4 ± 0.60%
- Internalized [%] ([2]; 60 min): 39.3 ± 0.52%
- Internalized in relation to 125I-Fc-131 [%] ([2]; 120 min): 675 ± 47.4%
- Internalization [% Fc-131] 2 h [2]: 675 % Fc-131
- Cell-bound [%] ([2]; 120 min): 37.2 ± 2.16%
- Internalized [%] ([2]; 120 min): 53.23 ± 1.06%
